Source: PubChem BioAssay (NCI)
Values joined by “and” are separate entries in the source; they are usually repeats but may differ in a detail not shown here. Identical values can stand only once.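 Following 48 hours of exposure in 96-well plates, responses at five concentrations were used to interpolate endpoints linearly. GI50 marks 50% less growth. TGI: concentration producing complete growth inhibition.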

tested on: MDA-MB-468 breast; assay: NCI-60 cell line screen, 48 h

**Q.** Which GI50 does the source give for `Nc1ccccc1NC(=O)c1ccc(CSc2nc(N3CCOCC3)c3cccn3n2)cc1` here?
**A.** The GI50 was 1720 nM.

**Q.** And the TGI?
**A.** Its TGI is 6470 nM.

**Q.** Which results are given for `Nc1ncc(-c2cnn(C3CCNCC3)c2)cc1-c1nc2ccccc2o1`?
**A.** GI50: 367 nM; TGI: 2330 nM

**Q.** How did the GI50 turn out when `COc1ccc(C(=O)/C=C/c2cc3ccccc3[nH]c2=O)cc1` was run?
**A.** The GI50 was 10500 nM.

**Q.** And the TGI?
**A.** The TGI was 23100 nM.

**Q.** With `CCC1CCc2nc3sc(C(=O)Nc4ccccc4F)c(N)c3cc2C1` (stereo unspecified) as the molecule, how does the GI50 read?
**A.** Its GI50 is 347 nM.

**Q.** And the TGI?
**A.** Its TGI is greater than 100000 nM.

**Q.** For `Brc1cccc(/C=N/Nc2nc(N/N=C/c3cccc(Br)c3)nc(N3CCOCC3)n2)c1`, which GI50 is on record?
**A.** Its GI50 is 1910 nM.

**Q.** And the TGI?
**A.** The TGI was 6090 nM.

**Q.** Which results are given for `CC(C)(C)c1cc(NC(=O)Nc2ccc(-c3cn4c5c(sc4n3)CCc3cn(CCCN4CCCCC4)cc3-5)cc2)no1`?
**A.** GI50: 1840 nM; TGI: 3720 nM

**Q.** `CCCCCCN(CCCCCC)C(=N)c1ccnc2ccccc12` was tested. Which GI50 did it give?
**A.** The GI50 was 3130 nM.

**Q.** And the TGI?
**A.** Its TGI is 11100 nM.

**Q.** What does the source list for `CS(=O)(=O)c1ccc(N/N=C/c2c(-c3ccc(S(C)(=O)=O)cc3)[nH]c3ccc(F)cc23)cc1`?
**A.** GI50: 3490 nM; TGI: > 50000 nM

**Q.** For `COc1ccc(-c2coc3ncnc(N)c23)cc1`, which GI50 is on record?
**A.** Its GI50 is greater than 25000 nM.

**Q.** And the TGI?
**A.** The TGI was greater than 25000 nM.

**Q.** For `CCCCCCCCCCCCCOC(=O)c1c(C)[nH]c(/C=C2\N=C(c3ccc[nH]3)C=C2OC)c1C`, which GI50 is on record?
**A.** The GI50 was 385 nM.

**Q.** What about the TGI of the same molecule?
**A.** The TGI was 44100 nM.

**Q.** For `CCc1ccc(C2=C/C(=C/c3ccc(Cl)cc3)C(=O)N2CCc2ccc(S(N)(=O)=O)cc2)cc1`, which GI50 is on record?
**A.** The GI50 was 1940 nM.

**Q.** What about the TGI of the same molecule?
**A.** Its TGI is 5250 nM.

**Q.** Which results are given for `O=c1oc2ccc(Cl)cc2c(=O)n1-c1ccc(Cl)cc1F`?
**A.** GI50: 382 nM; TGI: 1870 nM

**Q.** What does the source list for `CCOC(=O)[C@H](CSSc1ncnc2cc[nH]c12)NC(=O)[C@@H](C)c1ccc2cc(OC)ccc2c1`?
**A.** GI50: 179 nM; TGI: 91700 nM

**Q.** For `O=c1ncc(-c2ccc(C(F)(F)F)cc2)c(NC2CCCCCC2)[nH]1`, which GI50 is on record?
**A.** Its GI50 is 21000 nM.

**Q.** And the TGI?
**A.** The TGI was 51400 nM.

**Q.** Which GI50 does the source give for `C[C@H](c1ccc(Cl)cc1N)N1C(=O)c2cc(I)ccc2N(CCCN2CCN(C)CC2)C(=O)[C@@H]1c1ccc(Cl)cc1` here?
**A.** The GI50 was 1570 nM.

**Q.** What about the TGI of the same molecule?
**A.** The TGI was 3140 nM.

**Q.** With `CS(=O)(=O)CCNCc1ccc(-c2ccc3ncnc(Nc4ccc(OCc5ccccc5)c(C(F)(F)F)c4)c3c2)o1` as the molecule, how does the GI50 read?
**A.** The GI50 was 1860 nM.

**Q.** What about the TGI of the same molecule?
**A.** The TGI was 6400 nM.

**Q.** Which results are given for `O=C1C2CC3C(CC2C(=O)[N]1[Sn]([c]1ccccc1)([c]1ccccc1)[c]1ccccc1)C1(Cl)C(Cl)=C(Cl)C3(Cl)C1(Cl)Cl` (stereo unspecified)?
**A.** GI50: 120 nM; TGI: 280 nM

**Q.** With `COc1cc2[nH]c(C(=O)c3cc(OC)c(OC)c(OC)c3)c(N)c2cc1C#CCO` as the molecule, how does the GI50 read?
**A.** The GI50 was 183 nM.

**Q.** And the TGI?
**A.** Its TGI is greater than 100000 nM.

**Q.** `Cc1cc(NC(=O)c2ccc(NS(=O)(=O)CCO)cc2N2CCC3(CC2)CC3)nc(N2CCC(F)(F)CC2)n1` was tested. Which GI50 did it give?
**A.** Its GI50 is 69.4 nM.

**Q.** What about the TGI of the same molecule?
**A.** The TGI was 2930 nM.

**Q.** What does the source list for `COc1cc(N2CCC(N3CCN(C)CC3)CC2)ccc1Nc1ncc(Cl)c(Nc2ccccc2P(C)(C)=O)n1`?
**A.** GI50: 1680 nM; TGI: 5290 nM

**Q.** What does the source list for `CC(C)(Cl)CCC1=C(Cl)C(=O)c2ccccc2C1=O`?
**A.** GI50: 1500 nM; TGI: 3490 nM

**Q.** How did the GI50 turn out when `COc1ccc(NC(=O)[C@H](C)NC(=O)OC(C)(C)C)cc1C(=O)Nc1cccc(-c2cc(=O)c3c(OC)c(OC)c(OC)cc3o2)c1` was run?
**A.** Its GI50 is 2250 nM.

**Q.** What about the TGI of the same molecule?
**A.** Its TGI is 6280 nM.

**Q.** With `COc1ccc(C(=S)c2cc(OC)c(OC)c(OC)c2)cc1OC(=O)CCl` as the molecule, how does the GI50 read?
**A.** Its GI50 is 96.4 nM.

**Q.** Which GI50 does the source give for `CCN(Cc1ccc(F)cc1)c1ccc(CO)c(Cl)c1` here?
**A.** The GI50 was 14.7 nM.

**Q.** What about the TGI of the same molecule?
**A.** Its TGI is 33.2 nM.

**Q.** How did the GI50 turn out when `CCN1C(=O)N(CC)C2C1NN=c1s/c(=C3\C(=O)N(CCC(C)C)c4ccccc43)c(=O)n12` (stereo unspecified) was run?
**A.** Its GI50 is 283 nM.

**Q.** And the TGI?
**A.** The TGI was 720 nM.

**Q.** `CN(C)CC/C=C1\c2ccccc2Sc2ccc(Cl)cc21` was tested. Which GI50 did it give?
**A.** The GI50 was 1390 nM.

**Q.** And the TGI?
**A.** The TGI was 3020 nM.

**Q.** `NC1=NC(=O)N2CC12` (stereo unspecified) was tested. Which GI50 did it give?
**A.** Its GI50 is 76800 nM.

**Q.** What about the TGI of the same molecule?
**A.** The TGI was 294000 nM.

**Q.** With `O=C1C(=O)c2cc([N+](=O)[O-])ccc2-c2ccccc21` as the molecule, how does the GI50 read?
**A.** The GI50 was 1640 nM.

**Q.** And the TGI?
**A.** The TGI was 3190 nM.

**Q.** What does the source list for `CCCCCCCCN(CCCCCCCC)C(=N)c1ccnc2ccccc12`?
**A.** GI50: 342 nM; TGI: 1270 nM

**Q.** For `COc1ccc(OC)c(/C=C/c2nnc(Nc3ccc(Cl)cc3)o2)c1`, which GI50 is on record?
**A.** The GI50 was 16400 nM.

**Q.** And the TGI?
**A.** Its TGI is greater than 100000 nM.

**Q.** What does the source list for `COc1cc2c(c(OC)c1OC)-c1ccc(OC)c(=O)cc1[C@@H](NC(=O)CCl)CC2`?
**A.** GI50: < 10 nM; TGI: < 10 nM

**Q.** How did the GI50 turn out when `CN1CCN(C(=O)c2ccc(NC(=O)Nc3ccc(N(C)c4ccnc(Nc5ccc(CS(C)(=O)=O)cc5)n4)cc3)cc2)CC1` was run?
**A.** The GI50 was 4720 nM.

**Q.** What about the TGI of the same molecule?
**A.** The TGI was greater than 25000 nM.

**Q.** With `COc1cc2c(c(OC)c1OC)-c1ccc([O-])c(=O)cc1[C@@H](NC(C)=O)CC2.COc1cc2c(c(OC)c1OC)-c1ccc([O-])c(=O)cc1[C@@H](NC(C)=O)CC2.[Cu+2]` as the molecule, how does the GI50 read?
**A.** Its GI50 is 4700 nM.

**Q.** What about the TGI of the same molecule?
**A.** The TGI was 43200 nM.

**Q.** How did the GI50 turn out when `C/C(=C\c1ccn(-c2ccc(N)c(C(F)(F)F)c2)n1)[C@@H]1C[C@@H]2O[C@]2(C)CCC[C@H](C)[C@H](O)[C@@H](C)C(=O)C(C)(C)[C@@H](O)CC(=O)O1` was run?
**A.** The GI50 was 10.6 nM.

**Q.** What about the TGI of the same molecule?
**A.** The TGI was 14200 nM.

**Q.** What does the source list for `C#C[C@@]1(O)[C@@H](CO)O[C@@H](n2cc(Cl)c3c(N)ncnc32)[C@@H]1O`?
**A.** GI50: 180 nM; TGI: 451 nM

**Q.** With `CNC(=O)c1ccc(Nc2ncc(C(F)(F)F)c(NCc3nccnc3N(C)S(C)(=O)=O)n2)cc1` as the molecule, how does the GI50 read?
**A.** Its GI50 is 1590 nM and 2060 nM and 1980 nM.

**Q.** And the TGI?
**A.** The TGI was 4990 nM and 5010 nM and 5290 nM.

**Q.** How did the GI50 turn out when `Nc1nc(N)c2nc(CNc3ccc(C(=O)CC(CCC(=O)O)C(=O)O)cc3)cnc2n1` (stereo unspecified) was run?
**A.** The GI50 was 208 nM.

**Q.** What about the TGI of the same molecule?
**A.** The TGI was 2340 nM.

**Q.** Which results are given for `O=S(=O)(NCCNc1cc(-c2cn(-c3ccccc3)nc2-c2cccc(O)c2)ccn1)c1ccc(C(F)(F)F)cc1`?
**A.** GI50: 2050 nM; TGI: 5020 nM

**Q.** How did the GI50 turn out when `O=C1C=C(Nc2ccccc2)c2ncccc2C1=O` was run?
**A.** Its GI50 is 1570 nM.

**Q.** What about the TGI of the same molecule?
**A.** Its TGI is 3160 nM.

**Q.** How did the GI50 turn out when `COc1cccc(-c2nn(-c3ccccc3)cc2-c2ccnc(NCCNS(=O)(=O)c3ccc(C(F)(F)F)cc3)c2)c1` was run?
**A.** Its GI50 is 3310 nM.

**Q.** And the TGI?
**A.** Its TGI is 15100 nM.

**Q.** Which GI50 does the source give for `Cc1ccc(-c2csc(N(C(=O)N3CCN(c4cc5c(cc4F)c(=O)c(C(=O)O)cn5C4CC4)CC3)c3ccccc3)n2)cc1` here?
**A.** The GI50 was 366 nM.

**Q.** What about the TGI of the same molecule?
**A.** The TGI was greater than 100000 nM.
